Reference: patent publication US7947707B2, “Nitrogenated heterocyclic compound and pharmaceutical composition comprising the same” (Kissei Pharmaceutical Co., Ltd., priority 2005, dated 2011)

Experiments:
[1] = target: T1, xanthine oxidase (from buttermilk) (Bos taurus, UniProt P80457); assay: Xanthine oxidase inhibitory effect; assay type: biochemical; conditions: 100 μmol/L xanthine, 5 mU/mL enzyme; read-out: X.O. inhibition IC50
T1 construct: xanthine oxidase (from buttermilk; biozyme laboratories); purchased biozyme laboratories; host or cells: buttermilk (natural source)
Procedure: Assay for inhibition of xanthine oxidase was performed in 100 μmol/L substrate concentration (final concentration), 5 mU/mL enzyme concentration (final concentration) and compounds of the present invention as test compounds which were prepared with xanthine oxidase (from buttermilk; biozyme laboratories), xanthine (Sigma) and phosphate-buffered saline (PBS). In addition, all test compounds were frozen for preservation in condition of 20 mmol/L DMSO solution and used for experiments after thawing at need. Method is following: after diluted solution of test compound was added to 90 μL of 11.1 mU/mL enzyme solution, the mixture was incubated for 10 minutes after mixing. To start reaction, 100 μL of 200 μmol/L substrate solution was added to there, 10 minutes later, the reaction was stopped by addition of 500 μL of 0.5 mol/L sulfuric acid, and then absorbance at […] was measured. Final concentration of test compound was a single concentration, 10 μmol/L in single well for initial screening and 6 concentrations, 10, 1 μmol/L, 100, 10, 1 nmol/L, 100 pmol/L in duplicate for assay to calculate 50% inhibitory concentration (IC50) which were used for assay. Percent inhibition was calculated according to the formula described below. Percent inhibition (%)=(A−B)/(A−C)×100
In formula, A means absorbance in wells without test compound, B means absorbance in wells with test compound, C means absorbance in blank wells.
IC50 value was calculated from percent inhibition in each concentration by nonlinear regression method.

[2] = target: T2, HEK293 cells forced to express URAT1 (Homo sapiens, UniProt Q96S37); assay: URAT1 inhibitory effect, [8-14C] uric acid uptake; assay type: cell-based; conditions: test compound 100 μmol/L, 20 μmol/L uric acid, 5 minutes uptake
T2 construct: host or cells: HEK293
T2 sequence (Q96S37 1-553): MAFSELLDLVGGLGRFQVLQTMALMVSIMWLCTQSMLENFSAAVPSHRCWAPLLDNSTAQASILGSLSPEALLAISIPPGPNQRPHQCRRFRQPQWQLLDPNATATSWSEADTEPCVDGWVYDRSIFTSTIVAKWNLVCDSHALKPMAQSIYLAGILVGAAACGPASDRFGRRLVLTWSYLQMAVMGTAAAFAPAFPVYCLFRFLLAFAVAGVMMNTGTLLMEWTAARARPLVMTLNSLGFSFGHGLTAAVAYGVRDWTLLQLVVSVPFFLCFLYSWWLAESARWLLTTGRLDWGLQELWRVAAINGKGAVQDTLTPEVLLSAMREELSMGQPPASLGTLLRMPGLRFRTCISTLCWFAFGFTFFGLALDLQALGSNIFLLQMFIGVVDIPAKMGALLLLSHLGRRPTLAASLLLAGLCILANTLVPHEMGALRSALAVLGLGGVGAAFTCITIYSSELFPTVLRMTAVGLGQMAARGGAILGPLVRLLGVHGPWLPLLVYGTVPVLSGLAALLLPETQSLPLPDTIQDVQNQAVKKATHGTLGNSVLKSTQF
Excerpt: DMEM containing 10% FBS (supplemented with 0.05% geneticin, Nissui Pharmaceutical Co., Ltd.), HEK293 cells forced to express URAT1 (HCS (Human cell Systems), (Fuji Biomedix)), HBSS as washing buffer and HBSS substituted with Na-gluconate (NaCl in HBSS was substituted with Na-gluconate) were used for assay. [8-^14C] uric acid (moravek) was used as an uric acid reagent and added to assay buffer at 20 μmol/L as a final concentration. Compounds of the present invention were used as a test compound, 20 mmol/L stock solution of each test compound (DMSO solution) was diluted appropriately, and then the diluted test compound solution was added to assay buffer at 100 μmol/L as a final concentration including 0.5% final concentration of DMSO.
To prepare assay plates, at first, cells on subculture petri dish were peeled off using treatment of 0.05% trypsin-EDTA solution, and then seeded on Biocoat Poly-D-Lysine Cellware 24 well plate (BECTON DICKINSON) at a density of 2×10^5 cells/well and cultured for 2 days.
For the uptake study, at first, culture medium was removed by aspiration and cells were washed twice with HBSS (37° C.), then the buffer was replaced with 1 mL of assay buffer (37° C.). Cells were pre-incubated for 10 minutes. And then, the buffer was removed by aspiration and 0.5 mL of radioisotope ligand solution incubated at 37° C. was added, then cells were incubated for 5 minutes. After uptake, radioisotope solution was removed by aspiration, and immediately cells were washed three times with ice-cold HBSS, followed by resolving by addition of 0.5 mL of 0.5 mol/L NaOH. Cell lysate solution was transferred to a vial or 24 well plate for Betaplate, and mixed with 0.5 mL of liquid scintillator (Optiphase ‘Super Mix’; Perkin Elmer). Radioisotope activity was measured (using Betaplate 1450). As mean count in control solution not including test compound was 100%, percent inhibition was calculated by determining percent decrease in mean count in solution including test compound from mean count in control solution.

[3] = system: potassium oxonate induced hyperuricemia; assay: Blood hypouricemic effect, potassium oxonate induced hyperuricemia; assay type: in vivo; conditions: Rattus norvegicus, po, male SD rats, serum 2 hours after administration, read-out: Decrease (%) in UA concentration; for inhibition in vivo at 10 mg/kg: 10 mg/kg orally
Procedure: Effect of compound of the present invention as a test compound was studied on potassium oxonate induced hyperuricemia with male 7-week-old SD rats (Charles River Japan) and potassium oxonate (Aldrich) suspended in 1% gum arabic solution. Test compound was suspended in 0.5% CMC-Na solution, and then administered orally. Dosing was 10 mg/kg or 50 mg/kg. All volume of administered solution was 10 mL/kg. Potassium oxonate 250 mg/kg was administered to dorsal region of rats subcutaneously, 1 hour later each test compound was administered orally. For control group, only 0.5% CMC-Na solution as a vehicle was administrated. At 2 hours after administration of test compounds or vehicle, blood was collected under ether anesthesia, and serum was separated according to general method. Treated number was 5 for each group.
Measurement of concentration of uric acid was conducted with following prepared reagents. The deproteinization reagent was prepared in the following manner; 100 g of sodium tungstate was added to a 2 L flask, and exactly 75 mL of 85% phosphoric acid and 500 mL of water were added to the flask equipped with a reflux condenser, and heated for an hour. After cooling, the resulting faint yellow-green solution was diluted to 1 L exactly. Sodium carbonate-urea reagent was prepared in the following manner; 14 g of anhydrous sodium carbonate and 14 g of urea were dissolved in water and final volume of the solution was adjusted to 100 mL exactly. Phosphotungstic coloring reagent was prepared in 4-fold dilution of deproteinzation reagent described above with water. UA standard solution (10 mg/dL: Kyokuto pharmaceutical industrial CO., LTD) was used as an uric acid standard solution, and then serially diluted uric acid standard solution with purified water was also used for standard curve.
Three hundred μL of serum or standard was added to 2.1 mL of purified water, and then 150 μL of deproteination reagent was also added to the solution, followed by mixing. After incubating for 20 minutes, the mixture was centrifuged at 3000 rpm for 10 minutes. Sodium carbonate-urea reagent (0.5 mL) was added to 1.5 mL of supernatant, and the mixture was incubated for 20 minutes. Next, after addition of 250 μL of coloring reagent, further incubation was carried over 15 minutes. Absorbance at 660 nm was measured, and concentration of uric acid was calculated with standard curve. Percent decrease in concentration of uric acid was calculated by following formula. Percent decrease in concentration of uric acid (%)=(A−B)/A×100
In formula, A means average of concentration of blood uric acid in control group, B means average of concentration of blood uric acid in test compounds-treated group.

T1 sequence (P80457 whole entry): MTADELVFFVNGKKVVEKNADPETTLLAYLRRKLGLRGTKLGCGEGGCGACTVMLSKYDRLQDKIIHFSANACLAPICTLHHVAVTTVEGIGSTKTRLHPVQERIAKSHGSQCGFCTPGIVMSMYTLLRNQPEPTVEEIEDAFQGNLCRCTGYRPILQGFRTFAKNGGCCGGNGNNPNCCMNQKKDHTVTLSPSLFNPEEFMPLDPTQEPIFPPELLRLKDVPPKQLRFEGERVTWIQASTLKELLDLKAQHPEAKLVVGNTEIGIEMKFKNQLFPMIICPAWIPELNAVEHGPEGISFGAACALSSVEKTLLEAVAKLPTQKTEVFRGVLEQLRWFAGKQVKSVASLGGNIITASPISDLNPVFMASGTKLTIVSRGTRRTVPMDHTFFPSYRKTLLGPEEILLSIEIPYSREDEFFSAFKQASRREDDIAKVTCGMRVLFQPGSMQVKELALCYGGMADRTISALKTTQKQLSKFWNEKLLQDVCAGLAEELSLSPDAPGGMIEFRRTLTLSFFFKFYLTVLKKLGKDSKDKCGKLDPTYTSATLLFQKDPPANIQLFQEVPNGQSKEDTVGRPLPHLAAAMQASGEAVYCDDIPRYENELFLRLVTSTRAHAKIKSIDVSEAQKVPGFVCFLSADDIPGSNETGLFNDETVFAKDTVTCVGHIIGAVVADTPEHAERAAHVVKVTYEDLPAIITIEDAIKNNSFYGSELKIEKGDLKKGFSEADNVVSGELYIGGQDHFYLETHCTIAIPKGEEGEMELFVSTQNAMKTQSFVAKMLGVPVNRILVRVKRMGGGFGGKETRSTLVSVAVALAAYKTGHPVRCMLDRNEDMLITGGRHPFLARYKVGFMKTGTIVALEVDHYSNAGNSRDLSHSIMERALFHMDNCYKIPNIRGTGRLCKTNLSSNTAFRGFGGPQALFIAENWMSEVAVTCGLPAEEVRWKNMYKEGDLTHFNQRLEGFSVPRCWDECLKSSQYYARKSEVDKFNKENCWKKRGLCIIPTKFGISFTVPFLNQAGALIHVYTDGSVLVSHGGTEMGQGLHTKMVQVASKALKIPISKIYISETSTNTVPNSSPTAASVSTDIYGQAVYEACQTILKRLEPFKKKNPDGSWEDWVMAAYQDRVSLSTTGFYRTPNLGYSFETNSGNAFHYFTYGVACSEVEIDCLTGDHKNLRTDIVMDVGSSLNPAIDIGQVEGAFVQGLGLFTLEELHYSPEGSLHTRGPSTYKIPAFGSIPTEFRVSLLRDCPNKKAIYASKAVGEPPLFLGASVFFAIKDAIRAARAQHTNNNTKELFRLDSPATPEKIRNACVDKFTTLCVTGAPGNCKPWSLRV

| Structure (SMILES) | IC50 [1] [nM] | inhibition at 100 µM [2] [%] | inhibition in vivo at 10 mg/kg [3] [%] | inhibition in vivo at 50 mg/kg ([3]; 50 mg/kg orally) [%] |
| --- | --- | --- | --- | --- |
| N#Cc1cn(-c2ccc(C(=O)O)cc2)c2ccccc12 [XO-CH146] | 50.5 | 92.1 | – | – |
| N#Cc1cn(-c2ccc(C(=O)O)cc2)c2ncc(Br)cc12 [XO-KT16] | 99.2 | 92.4 | – | – |
| N#Cc1cn(-c2ccc(-c3nnn[nH]3)cc2)c2ccccc12 [XO-CH150] | 31.6 | 79.3 | – | – |
| N#Cc1cn(-c2ccc(C(=O)O)cc2)c2cc(Cl)ccc12 [XO-CH209] | 60.8 | 97.1 | – | – |
| COc1ccc2c(C#N)cn(-c3ccc(C(=O)O)cc3)c2c1 [XO-CH207] | 96.5 | 93.9 | – | – |
| N#Cc1cn(-c2ccc(C(=O)O)cc2)c2cccc(Cl)c12 [XO-CH201] | 50.5 | 88.6 | – | – |
| N#Cc1cn(-c2ccc(C(=O)O)cc2)c2cc3c(cc12)OCO3 [XO-CH199] | 49.1 | 91.5 | – | – |

These reach a lower IC50 [1]. Values come first.

| IC50 [1] [nM] | inhibition at 100 µM [2] [%] | Structure (SMILES) | inhibition in vivo at 10 mg/kg [3] [%] | inhibition in vivo at 50 mg/kg ([3]; 50 mg/kg orally) [%] |
| --- | --- | --- | --- | --- |
| 5.98 | 59.5 | N#Cc1cn(-c2ccc(C(=O)O)cc2)cc1-c1cccs1 [XO-B401] | 78.8 | – |
| 13.8 | 92.3 | Cc1ccc2c(c1)c(C#N)cn2-c1ccc(C(=O)O)cc1 [XO-CH164] | – | 51.4 |
| 3.82 | 68.8 | N#Cc1cn(-c2ccc(C(=O)O)cc2)cc1-c1ccc2c(c1)OCCO2 [XO-B434] | 63.2 | – |
| 4.79 | 70.8 | N#Cc1cn(-c2ccc(C(=O)O)cc2)nc1-c1ccsc1 [XO-TT571] | 62 | – |
| 26.7 | 93.8 | N#Cc1cn(-c2ccc(C(=O)O)cc2)c2ccc(Cl)cc12 [XO-CH160] | – | – |
| 4.63 | 62.6 | N#Cc1cn(-c2ccc(C(=O)O)cc2)cc1-c1ccsc1 [XO-B418] | 79.1 | – |
| 4.73 | 55.5 | Cc1ccsc1-c1cn(-c2ccc(C(=O)O)cc2)cc1C#N [XO-B407] | 76.9 | – |
